Measurements: patent US20040102438A1, “Gaba-receptor modulators for the treatment of neurodegenerative diseases of the eye” (priority 2001, published 2004)

Columns and labels:
[1] = Properties of the active ingredients (solubility, lipophilicity); assay type: physicochemical
[2] = system: cultured cortical cells of the rat; assay: L-glutamate excitotoxicity in cultured cortical cells, cell death by LDH release (Tests 1 and 2); assay type: cell-based; conditions: active ingredient 500 nm plus 10 nm L-glutamate; after 10, 30 and 60 minutes compared with the control group (FIG. 1, FIG. 2)
Experimental: Dissociated cortical cells from 16-18 day old fetal rats were bred in 35 mm dishes. The nutrient medium contained during the first 7 days L-lutamine (4 mM), glucose (6 g/l), penicillin (100 U/ml), streptomycin (100 μg/ml) and 10% hormonally enriched medium, which [contained] transferrin (1 mg/ml), insulin (250 μg/ml), putrescine (600 μM), sodium selenite (0.3 μM), progesterone (0.2 μM) and estradio (0.1 μM). The dishes were stored in an atmosphere (5% CO2 and […]) heated to 37 degrees Celsius.
To form the control group (Series 1), half of the dishes were supplemented with the nutrient medium 10 nm L-glutamate and incubated under normotoxic conditions for 4 hours.
To determine the neuroprotective properties, the other half of the dishes were supplemented with the nutrient medium flunitrazepam 500 nm and 10 nm L-glutamate (Series 2) and likewise incubated under normotoxic conditions.
The number of surviving or devitalized cells was determined by determination of the amount of lactate-dehydrogenase (LDH) ejected into the cell medium. The LDH activity was determined photospectrometrically by measurement of the NADH metabolism at 340 nm. […]
In the diagrams of FIG. 1 and FIG. 2 the measured values were entered as follows: The measured value describes the number of dead cells after the test in relation to the total number of cells before the test in percent. […]

Cc1ncc2n1-c1ccc(Cl)cc1C(c1ccccc1F)=NC2 [Midazolam]
water solubility [1]: water-soluble

COCc1c(C(=O)OC(C)C)ncc2[nH]c3ccc(OCc4ccccc4)cc3c12 [abecamil, abecarnil]
number of dying cells [2]: reduction in the number of dying cells

CN1C(=O)CN=C(c2ccccc2F)c2cc([N+](=O)[O-])ccc21 [flunitrazepam]
number of dying cells [2]: reduction in the number of dying cells
